Test results as given in patent US20110098177A1, “METHODS AND COMPOSITIONS OF PLANT MICRONUTRIENTS” (NOVUS INTERNATIONAL INC., priority 2006, published 2011).

How the values were obtained:
Type in all cases: in vivo
[1] = tested on: Patriot bell pepper plants; assay: Marketable yield, open-field bell pepper (Examples 7-10); details: open field; lb/acre/season: BIOX-Z 1.3, Cu 6.7, M 23.0, Fe 3.2, INC 4.0, INZ 0.6, CM 10.0, GZ 1.0, GF 4.0, EDZ 1.4, EDM 23.0
How it was run: (§1)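 Open-field 2008 trial, Balm FL; 'Tygress' tomato and 'Patriot' pepper transplants on drip-fed raised beds. Foliar micronutrient sprays at 3 and 5 WAT (BIOX-CM at 4 and 5), 60 gal/acre with surfactant. Youngest mature leaves sampled 6 WAT; RCBD, 5 replications, Fisher's LSD 5%.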

Tygress tomato plants [2] = assay: Nutrient concentration of tomato fruits at 10 WAT, open field (Examples 7-10); details: 10 WAT; open field; product rate as Table 17
How it was run: as §1

Tygress tomato plants [3] = assay: Foliar nutrient concentration 2 weeks after treatment, greenhouse tomato (Examples 4-6); details: for B concentration in tomato leaves / Ca concentration in tomato leaves / Cu concentration in tomato leaves / Fe concentration in tomato leaves / K concentration in tomato leaves / Mg concentration in tomato leaves / N concentration in tomato leaves / P concentration in tomato leaves / Zn concentration in tomato leaves: 2 weeks after Mn treatment; for Foliar Mn concentration: tomato leaves 2 weeks after Mn treatment
How it was run: (§2)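 Tygress tomato in 2-gallon pots of micronutrient-poor medium (negligible Fe, Zn, Mn, Cu) in greenhouse; foliar treatments at 5 WAT in 200 mL/plant water with non-ionic surfactant. Newest non-applied leaves analysed 2 weeks before and after treatment; marketable fruit harvested three times from 10 WAT, graded. RCBD, 6 replications, LSD 5%.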

Tygress tomato plants [4] = assay: Yields of tomato fruits, greenhouse (Examples 4-6); details: for Marketable yield: tomato fruits
How it was run: as §2

CSCCC(O)C(=O)[O-].CSCCC(O)C(=O)[O-].[Cu+2] (stereo not shown) [BIOX-Cu, Cu-HMTBA]
Marketable yield, Bell Pepper [1]: 7.8 ton/acre
B concentration of tomato fruits (Tygress tomato plants [2]): 21 ppm
Ca concentration of tomato fruits (Tygress tomato plants [2]): 0.2%
Cu concentration of tomato fruits (Tygress tomato plants [2]): 21 ppm
Fe concentration of tomato fruits (Tygress tomato plants [2]): 77 ppm
K concentration of tomato fruits (Tygress tomato plants [2]): 8.5%
Mg concentration of tomato fruits (Tygress tomato plants [2]): 0.39%
Mn concentration of tomato fruits (Tygress tomato plants [2]): 37 ppm
N concentration of tomato fruits (Tygress tomato plants [2]): 4.4%
P concentration of tomato fruits (Tygress tomato plants [2]): 0.67%
Zn concentration of tomato fruits (Tygress tomato plants [2]): 294 ppm

CSCCC(O)C(=O)[O-].CSCCC(O)C(=O)[O-].[Mn+2] (stereo not shown) [BIOX-M, Mn-HMTBA]
B concentration in tomato leaves (Tygress tomato plants [3]; Mn 0.31 lb/acre): 22 ppm
Ca concentration in tomato leaves (Tygress tomato plants [3]; Mn 0.31 lb/acre): 0.6%
Cu concentration in tomato leaves (Tygress tomato plants [3]; Mn 0.31 lb/acre): 5 ppm
Fe concentration in tomato leaves (Tygress tomato plants [3]; Mn 0.31 lb/acre): 109 ppm
K concentration in tomato leaves (Tygress tomato plants [3]; Mn 0.31 lb/acre): 3.1%
Mg concentration in tomato leaves (Tygress tomato plants [3]; Mn 0.31 lb/acre): 0.3%
N concentration in tomato leaves (Tygress tomato plants [3]; Mn 0.31 lb/acre): 3.5%
P concentration in tomato leaves (Tygress tomato plants [3]; Mn 0.31 lb/acre): 0.4%
Zn concentration in tomato leaves (Tygress tomato plants [3]; Mn 0.31 lb/acre): 31 ppm
Foliar Mn concentration (Tygress tomato plants [3]; Mn 0.31 lb/acre): 22.9 b ppm
B concentration in tomato leaves (Tygress tomato plants [3]; Mn 0.62 lb/acre): 24 ppm
Ca concentration in tomato leaves (Tygress tomato plants [3]; Mn 0.62 lb/acre): 0.6%
Cu concentration in tomato leaves (Tygress tomato plants [3]; Mn 0.62 lb/acre): 5 ppm
Fe concentration in tomato leaves (Tygress tomato plants [3]; Mn 0.62 lb/acre): 110 ppm
K concentration in tomato leaves (Tygress tomato plants [3]; Mn 0.62 lb/acre): 3.2%
Mg concentration in tomato leaves (Tygress tomato plants [3]; Mn 0.62 lb/acre): 0.3%
N concentration in tomato leaves (Tygress tomato plants [3]; Mn 0.62 lb/acre): 3.5%
P concentration in tomato leaves (Tygress tomato plants [3]; Mn 0.62 lb/acre): 0.5%
Zn concentration in tomato leaves (Tygress tomato plants [3]; Mn 0.62 lb/acre): 32 ppm
Foliar Mn concentration (Tygress tomato plants [3]; Mn 0.62 lb/acre): 29.5 b ppm
B concentration in tomato leaves (Tygress tomato plants [3]; Mn 1.23 lb/acre): 25 ppm
Ca concentration in tomato leaves (Tygress tomato plants [3]; Mn 1.23 lb/acre): 0.6%
Cu concentration in tomato leaves (Tygress tomato plants [3]; Mn 1.23 lb/acre): 5 ppm
Fe concentration in tomato leaves (Tygress tomato plants [3]; Mn 1.23 lb/acre): 112 ppm
K concentration in tomato leaves (Tygress tomato plants [3]; Mn 1.23 lb/acre): 3.1%
Mg concentration in tomato leaves (Tygress tomato plants [3]; Mn 1.23 lb/acre): 0.3%
N concentration in tomato leaves (Tygress tomato plants [3]; Mn 1.23 lb/acre): 3.5%
P concentration in tomato leaves (Tygress tomato plants [3]; Mn 1.23 lb/acre): 0.5%
Zn concentration in tomato leaves (Tygress tomato plants [3]; Mn 1.23 lb/acre): 28 ppm
Foliar Mn concentration (Tygress tomato plants [3]; Mn 1.23 lb/acre): 60.6 a ppm
B concentration in tomato leaves (Tygress tomato plants [3]; Mn 2.46 lb/acre): 23 ppm
Ca concentration in tomato leaves (Tygress tomato plants [3]; Mn 2.46 lb/acre): 0.6%
Cu concentration in tomato leaves (Tygress tomato plants [3]; Mn 2.46 lb/acre): 5 ppm
Fe concentration in tomato leaves (Tygress tomato plants [3]; Mn 2.46 lb/acre): 114 ppm
K concentration in tomato leaves (Tygress tomato plants [3]; Mn 2.46 lb/acre): 3.2%
Mg concentration in tomato leaves (Tygress tomato plants [3]; Mn 2.46 lb/acre): 0.3%
N concentration in tomato leaves (Tygress tomato plants [3]; Mn 2.46 lb/acre): 3.6%
P concentration in tomato leaves (Tygress tomato plants [3]; Mn 2.46 lb/acre): 0.4%
Zn concentration in tomato leaves (Tygress tomato plants [3]; Mn 2.46 lb/acre): 33 ppm
Foliar Mn concentration (Tygress tomato plants [3]; Mn 2.46 lb/acre): 69.2 a ppm
Marketable tomato yield compared with non-treated control (in words) (Tygress tomato plants [4]; BIOX-M at 1.23 lb/acre or more, BIOX-EDM at 2.0 lb/acre, Mn-sulfate at 1.0 lb/acre): significantly higher than the non-treated control
Marketable yield (Tygress tomato plants [4]; Mn 0.31 lb/acre): 2.2 b lb/plant
Marketable yield (Tygress tomato plants [4]; Mn 0.62 lb/acre): 2.1 b lb/plant
Marketable yield (Tygress tomato plants [4]; Mn 1.23 lb/acre): 4.2 a lb/plant
Marketable yield (Tygress tomato plants [4]; Mn 2.46 lb/acre): 4.3 a lb/plant
Marketable yield, Bell Pepper [1]: 6.3 ton/acre
B concentration of tomato fruits (Tygress tomato plants [2]): 23 ppm
Ca concentration of tomato fruits (Tygress tomato plants [2]): 0.2%
Cu concentration of tomato fruits (Tygress tomato plants [2]): 23 b ppm
Fe concentration of tomato fruits (Tygress tomato plants [2]): 81 b ppm
K concentration of tomato fruits (Tygress tomato plants [2]): 8.0%
Mg concentration of tomato fruits (Tygress tomato plants [2]): 0.37%
Mn concentration of tomato fruits (Tygress tomato plants [2]): 43 b ppm
N concentration of tomato fruits (Tygress tomato plants [2]): 4.2%
P concentration of tomato fruits (Tygress tomato plants [2]): 0.65%
Zn concentration of tomato fruits (Tygress tomato plants [2]): 209 b ppm
